Measurements published in PubChem BioAssay (NCI).
Where “and” joins values, the source holds several entries; their conditions need not be identical. Equal values may be shown once.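 Five concentrations, 48 hours, 96-well plates. Abbreviation: GI50, concentration required for 50% inhibition of growth. TGI marks complete inhibition of growth.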

Key:
Assay in all cases: NCI anticancer screen, dose series, 48 h
OVCAR-3 ovarian = test system: OVCAR-3 ovarian
RXF 393 renal = test system: RXF 393 renal
BT-549 breast = test system: BT-549 breast
A498 renal = test system: A498 renal
SK-OV-3 ovarian = test system: SK-OV-3 ovarian
786-0 renal = test system: 786-0 renal
HL-60(TB) leukemia = test system: HL-60(TB) leukemia
MDA-MB-231 breast = test system: MDA-MB-231 breast
MCF7 breast = test system: MCF7 breast
A549 NSCLC = test system: A549 NSCLC

Row | Structure (SMILES) | GI50 (OVCAR-3 ovarian) | TGI (OVCAR-3 ovarian) | GI50 (RXF 393 renal) | TGI (RXF 393 renal) | GI50 (BT-549 breast) | TGI (BT-549 breast) | GI50 (A498 renal) | TGI (A498 renal) | GI50 (SK-OV-3 ovarian) | TGI (SK-OV-3 ovarian) | GI50 (786-0 renal) | TGI (786-0 renal) | GI50 (HL-60(TB) leukemia) | GI50 (MDA-MB-231 breast) | TGI (MDA-MB-231 breast) | GI50 (MCF7 breast) | TGI (MCF7 breast) | GI50 (A549 NSCLC) | TGI (A549 NSCLC) | TGI (HL-60(TB) leukemia) [µM]
1 | COC(=O)c1cc(-c2ccccc2)[nH]c1N/N=C/c1c(Cl)cccc1Cl | 0.17 µM | 0.356 µM | 0.616 µM | 52 µM | 0.466 µM | 6.69 µM | 0.198 µM | 0.704 µM | 0.39 µM | 3.26 µM | 0.41 µM | 8.39 µM | 0.289 µM | 0.474 µM | 6.85 µM | 0.266 µM | 4.85 µM | 0.501 µM | > 44.1 µM | 
2 | CCOc1ccc2c(-c3ccnc(Nc4cc(OC)cc(C(F)(F)F)c4)n3)cnn2n1 | 6.2 µM | > 25 µM | 10.8 µM | > 23.6 µM | 18.2 µM | > 25 µM | > 25 µM | > 25 µM | > 25 µM | > 25 µM | > 13.3 µM | > 25 µM | > 25 µM | 9.6 µM | > 22.5 µM | 1.13 µM | > 25 µM | > 14.7 µM | > 25 µM | > 25
3 | CO/N=C(\COc1ccc2c(=O)c3ccccc3oc2c1)c1ccccc1 | 27.4 µM | 79.3 µM | 39 µM | > 100 µM | 26.8 µM | 74.5 µM | 20.3 µM | 47.7 µM | 29.7 µM | 77 µM | 25.4 µM | 72.5 µM | > 100 µM | 25.2 µM | 57.1 µM | 37.9 µM | > 100 µM | 35.2 µM | 99.4 µM | > 100
4 | COc1ccc(C(=O)Cn2c(C(=O)c3ccccc3)nc3ccccc32)cc1 | 2.59 µM | > 21.6 µM | 2.38 µM | > 22.2 µM | 5.9 µM | > 100 µM | 2.9 µM | > 100 µM | 6.58 µM | > 100 µM | 9.31 µM | > 100 µM | 0.916 µM | 7.38 µM | > 100 µM | 1.35 µM | > 100 µM | 6.05 µM | > 100 µM | > 22.9
5 | O=C1NC(N/N=C\C(O)C(O)C(O)C(O)CO)=N/C1=C/c1ccccc1 (stereo not drawn) | 97.1 µM and 20.5 µM and > 100 µM | > 100 µM and 37.7 µM | > 100 µM and 21.7 µM | > 100 µM and 44 µM | 80.6 µM and 16.3 µM and > 100 µM | > 100 µM and 38.7 µM | 45.2 µM and 15.8 µM and > 100 µM | > 100 µM and 39.5 µM | > 100 µM and 20.2 µM | > 100 µM and 37.8 µM | 57.5 µM and 19.3 µM and > 100 µM | > 100 µM and 41.3 µM | 77.2 µM and 41.8 µM and > 100 µM | 51.7 µM and 15.4 µM and > 100 µM | > 100 µM and 33.4 µM | 40.3 µM and 13.5 µM and > 61.4 µM | > 100 µM and 30.7 µM | > 100 µM and 19 µM | > 100 µM and 45.7 µM | > 100
6 | CN(C)Cc1ccc(-c2cc3onc(-c4ccccc4)c3c(=O)n2C)cc1 |  | > 100 µM |  |  |  | > 100 µM |  | 56.9 µM |  | > 100 µM |  | 35 µM |  |  | > 100 µM |  | > 100 µM |  | 36.9 µM | 4.56
7 | O=C(CCN1CCCC1)Nc1ccc2c(NCc3ccccc3)c3ccccc3nc2c1 | 0.495 µM | 1.97 µM | 0.349 µM | 1.38 µM | 1.4 µM | 3.04 µM | 0.406 µM | 1.9 µM | 0.43 µM | 2.56 µM | 0.684 µM | 1.99 µM | 0.587 µM | 0.377 µM | 1.59 µM | 0.286 µM | 1.18 µM | 0.352 µM | 1.68 µM | 2.8
8 | CCCCCCCCCCCC1=NC(C)(C)CN1C(C)(C)CO | 2.05 µM | 6.2 µM | 2.26 µM | 4.48 µM | 9.89 µM | 22 µM | 5.76 µM | 20.8 µM | 3.8 µM | 12.4 µM | 1.93 µM | 3.89 µM | 1.77 µM | 2.1 µM | 4.48 µM | 2.48 µM | 5.64 µM | 6.53 µM | 19.6 µM | 4.66
9 | Fc1ccc(-c2ncn(C3CCNCC3)c2-c2ccnc(Oc3ccc4c(c3)OCO4)n2)cc1 | > 25 µM | > 25 µM | 7.88 µM | > 25 µM | > 21.3 µM | > 25 µM | 16 µM | > 25 µM | 14.9 µM | > 25 µM | > 23.8 µM | > 25 µM | > 21.3 µM | 10.5 µM | > 25 µM | 9.14 µM | > 25 µM | 16.4 µM | > 25 µM | > 25
10 | O=S(=O)(O)O |  | 1770 µM |  | 1500 µM |  | 2680 µM |  | 1780 µM |  | 2650 µM |  | 1490 µM |  |  | > 1900 µM |  | 1410 µM |  | 1870 µM | 1300
11 | Cc1ccc2nc3ccccc3c(NCc3ccc(Cl)cc3)c2c1 | 6.31 µM | 13 µM | 1.98 µM | 8.08 µM | 6.38 µM | 13.3 µM | 5.61 µM | 11.9 µM | 7.7 µM | 15.8 µM | 5.53 µM | 12.1 µM | 5.28 µM | 5.16 µM | 12.2 µM | 1.94 µM | 8.82 µM | 3.93 µM | 12.7 µM | 13.5
12 | CN1C(=O)c2ccc3ccccc3c2C1=O |  | > 100 µM |  | 96.6 µM |  | > 100 µM |  | > 100 µM |  | > 100 µM |  | > 100 µM |  |  | > 100 µM |  | > 100 µM |  | > 100 µM | > 100
13 | CCOC(=O)N1C/C(=C\c2ccccc2)C(=O)/C(=C/c2ccccc2)C1 |  | 14.5 µM |  | 10.3 µM |  | 4.54 µM |  | 34.2 µM |  | 27.8 µM |  | 9.15 µM |  |  | 5.3 µM |  | > 20.9 µM |  | 54.3 µM | 4.3
14 | CN(C)c1ccc(Nc2c3ccccc3nc3ccccc23)cc1 | 1.22 µM | 3.22 µM | 1.21 µM | 2.61 µM | 1.71 µM | 8.19 µM | 0.353 µM | 4.45 µM | 1.27 µM | 3.77 µM | 1.29 µM | 3.13 µM | 0.84 µM | 1.3 µM | 3.32 µM | 0.471 µM | 3.44 µM | 0.425 µM | 1.9 µM | 3.61
